Experimental data as given in US7960563B2, “Indazoles used to treat estrogen receptor beta mediated disorders” (Glaxo Group Limited, priority 2007, dated 2011).

Each molecule was assayed against T1, ERbeta protein (Homo sapiens, UniProt Q92731) (assay: ER beta FP binding assay). Details: 6 nM ERbeta protein, 1.5 nM ER FP ligand (Fluormone EL Red), 3 hours at room temperature; read-out: pIC50 in the ER beta FP binding assay (converted).
T1 construct: […]; His6 (leader […]) (N)
T1 sequence (Q92731 with tags, fused parts or gaps): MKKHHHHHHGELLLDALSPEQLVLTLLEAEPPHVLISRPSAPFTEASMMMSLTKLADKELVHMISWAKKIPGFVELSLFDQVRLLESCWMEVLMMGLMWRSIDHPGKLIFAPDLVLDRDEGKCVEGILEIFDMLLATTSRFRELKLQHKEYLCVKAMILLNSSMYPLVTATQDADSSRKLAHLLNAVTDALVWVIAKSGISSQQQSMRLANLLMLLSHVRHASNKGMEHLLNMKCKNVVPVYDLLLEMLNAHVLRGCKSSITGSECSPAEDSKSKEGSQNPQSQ
Protocol: (§1) Assay Buffer (AB) (50 mM MOPES pH 7.5, 50 mM NaF, 2.5 mM CHAPs), in deionized water, 5 mM 1,4 dithiothreitol (DTT) added on day of the experiment. The appropriate amount of AB was placed in a plastic tube, adding solid DTT before the assay was run. AB with DTT was distributed to plastic tubes. We have found use of plastic to be important vs glass. A final concentration of 6 nM ERbeta protein was added to the tube followed by gentle inversion. A final concentration of 1.5 nM ER FP ligand (Fluormone™ EL Red 200 nM in 20 mM Tris, 90% Methanol purchased from Invitrogen catalogue no P3030) was added to the same tube followed by gentle inversion. This was allowed to sit for 5-10 minutes before adding it to the 384 assay plate. Similar protocol was used for ERalpha with a final concentration of 4 nM ERalpha and 1.5 nM ER FP ligand.
(§2) 384 plates containing test compounds dissolved in 100% DMSO at 1 mM were serially diluted (1:3) by a Beckman FX. Serial diluted test compounds were added, […], to the assay plates with a maximum final concentration of 10 uM. Once the assay plates were ready, 10 uL of the above reagents were added to the appropriate set of plates with the Thermo combi. These plates were then sealed and place at room temperature for 3 hours.
The plates were then placed on the Molecular Devices Analyst and counted (excitation 535 nm, emission 590 nm with a 561 Dichroic mirror). Data was normalized to control then fitted to a non-linear least squares algorithm (see below).
pIC50 Calculation y=a+((b−a)/(1+(10^x/10^c)^d) Results
The amino acid sequence of human ER beta used in this assay is […]
For Oc1ccc(-n2ncc3c(O)cccc32)cc1F [Example 1, 1-(3-Fluoro-4-hydroxyphenyl)-1H-indazol-4-ol], the IC50 was less than 100 nM.
Work on N#Cc1cc(O)c2cnn(-c3ccc(O)c(F)c3)c2c1 [Example 3, 1-(3-Fluoro-4-hydroxyphenyl)-4-hydroxy-1H-indazole-6-carbonitrile] yielded an IC50 of less than 100 nM.
Molecule Oc1ccc(-n2ncc3c(O)cc(F)cc32)cc1F [Example 4, 6-Fluoro-1-(3-fluoro-4-hydroxyphenyl)-1H-indazol-4-ol] has an IC50 of less than 100 nM.
Oc1ccc(-n2ncc3c(O)cc(Br)cc32)cc1F [Example 5, 6-Bromo-1-(3-fluoro-4-hydroxyphenyl)-1H-indazol-4-ol] gave an IC50 of less than 100 nM.
C=Cc1cc(O)c2cnn(-c3ccc(O)c(F)c3)c2c1 [Example 6, 6-Ethenyl-1-(3-fluoro-4-hydroxyphenyl)-1H-indazol-4-ol] gave an IC50 of less than 100 nM.
CCc1cc(O)c2cnn(-c3ccc(O)c(F)c3)c2c1 [Example 7, 6-Ethyl-1-(3-fluoro-4-hydroxyphenyl)-1H-indazol-4-ol] showed an IC50 of less than 100 nM.
Oc1ccc(-n2ncc3c(O)cc(Cl)cc32)cc1F [Example 8, 6-Chloro-1-(3-fluoro-4-hydroxyphenyl)-1H-indazol-4-ol] gave an IC50 of less than 100 nM.
Work on Cc1cc(O)c2cnn(-c3ccc(O)c(F)c3)c2c1 [Example 9, 1-(3-Fluoro-4-hydroxyphenyl)-6-methyl-1H-indazol-4-ol] yielded an IC50 of less than 100 nM.
In the case of Oc1ccc(-n2ncc3c(O)c(F)ccc32)cc1F [Example 10, 5-Fluoro-1-(3-fluoro-4-hydroxyphenyl)-1H-indazol-4-ol], the IC50 is reported as less than 100 nM.
Oc1ccc(-n2ncc3c(O)c(Br)ccc32)cc1F [Example 11, 5-Bromo-1-(3-fluoro-4-hydroxyphenyl)-1H-indazol-4-ol] showed an IC50 of less than 100 nM.
With Oc1ccc(-n2ncc3c(O)ccc(F)c32)cc1F [Example 13, 7-Fluoro-1-(3-fluoro-4-hydroxyphenyl)-1H-indazol-4-ol] the IC50 was less than 100 nM.
Oc1ccc(-n2ncc3c(O)ccc(Cl)c32)cc1F [Example 14, 7-Chloro-1-(3-fluoro-4-hydroxyphenyl)-1H-indazol-4-ol] gave an IC50 of less than 100 nM.
Oc1ccc(-n2ncc3c(O)cccc32)cc1Cl [Example 17, 1-(3-Chloro-4-hydroxyphenyl)-1H-indazol-4-ol] was tested, and the IC50 was less than 100 nM.

What follows are molecules tested against T2, ERalpha (Homo sapiens, UniProt P03372) (assay: ER alpha FP binding assay). Details: ER beta versus ER alpha, FP binding assays.
T2 construct: […]; His6 (leader […]G) (N)
T2 sequence (P03372 with tags, fused parts or gaps): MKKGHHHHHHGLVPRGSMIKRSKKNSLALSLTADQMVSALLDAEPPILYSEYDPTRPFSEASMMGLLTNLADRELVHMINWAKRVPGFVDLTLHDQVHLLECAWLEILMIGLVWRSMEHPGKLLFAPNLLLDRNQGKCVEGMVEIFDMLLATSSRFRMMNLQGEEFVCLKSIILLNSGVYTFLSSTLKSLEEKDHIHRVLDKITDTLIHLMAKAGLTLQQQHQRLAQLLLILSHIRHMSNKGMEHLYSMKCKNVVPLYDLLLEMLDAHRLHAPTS
Protocol: as §1, §2
The plates were then placed on the Molecular Devices Analyst and counted (excitation 535 nm, emission 590 nm with a 561 Dichroic mirror). […]
With Oc1ccc(-n2ncc3c(O)cccc32)cc1F [Example 1, 1-(3-Fluoro-4-hydroxyphenyl)-1H-indazol-4-ol] the “selectivity versus ER alpha” value was greater than 10 fold.
